Source: BindingDB's records for PubMed 995128 (1976)
“And” between values parts separate entries of the source, which are not always exact repeats. Identical values can stand only once. Counter-ions that a name gives are not always drawn.

Legend:
D(1A) dopamine receptor = D(1A) dopamine receptor (Bos taurus, UniProt Q95136)
D(2) dopamine receptor = D(2) dopamine receptor (Bos taurus, UniProt P20288)
D(2) dopamine receptor, sequence (P20288 whole entry): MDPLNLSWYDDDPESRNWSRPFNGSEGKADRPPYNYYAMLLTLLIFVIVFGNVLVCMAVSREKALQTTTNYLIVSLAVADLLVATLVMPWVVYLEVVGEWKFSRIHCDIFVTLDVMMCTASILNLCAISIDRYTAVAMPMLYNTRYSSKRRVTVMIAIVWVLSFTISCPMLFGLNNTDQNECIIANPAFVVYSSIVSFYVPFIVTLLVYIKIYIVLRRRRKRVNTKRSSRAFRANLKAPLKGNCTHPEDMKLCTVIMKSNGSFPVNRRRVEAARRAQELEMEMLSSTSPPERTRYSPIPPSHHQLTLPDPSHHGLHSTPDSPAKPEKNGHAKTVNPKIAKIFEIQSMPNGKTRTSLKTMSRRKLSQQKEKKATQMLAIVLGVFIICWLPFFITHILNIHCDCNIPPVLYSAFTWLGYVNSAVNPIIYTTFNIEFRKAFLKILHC

D(1A) dopamine receptor, sequence (Q95136 whole entry): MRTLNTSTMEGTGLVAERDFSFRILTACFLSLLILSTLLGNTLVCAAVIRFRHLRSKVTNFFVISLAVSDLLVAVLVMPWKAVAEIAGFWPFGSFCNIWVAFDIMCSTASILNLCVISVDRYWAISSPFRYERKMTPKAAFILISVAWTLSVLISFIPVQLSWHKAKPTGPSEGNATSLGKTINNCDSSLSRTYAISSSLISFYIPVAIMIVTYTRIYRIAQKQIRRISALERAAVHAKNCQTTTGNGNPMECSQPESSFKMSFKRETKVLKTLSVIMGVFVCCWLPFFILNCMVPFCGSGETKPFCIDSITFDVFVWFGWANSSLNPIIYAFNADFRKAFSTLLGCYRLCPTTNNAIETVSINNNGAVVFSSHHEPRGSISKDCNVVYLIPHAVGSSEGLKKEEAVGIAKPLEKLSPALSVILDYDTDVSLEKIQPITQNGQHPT

Structure (SMILES) | Ki (D(1A) dopamine receptor) | Ki (D(2) dopamine receptor)
CSc1ccc2c(c1)C(N1CCN(C)CC1)Cc1ccccc1S2 (stereo not given) [methanesulfonic acid;1-methyl-4-(3-methylsulfanyl-5,6-dihydrobenzo[b][1]benzothiepin-5-yl)piperazine] | 210 nM | 1.4 nM
CC(C)NC(=O)C1C=C2c3cccc4[nH]cc(c34)CC2N(C)C1 (stereo not given) [CAS_60-79-7] | 61 nM | –
OCCN1CCN(CCCC2c3ccc(F)cc3Sc3ccc(C(F)(F)F)cc32)CC1 (stereo not given) [NSC_68751] | 1900 nM | 2.6 nM
O=C(CCCN1CCC(O)(c2ccc(Cl)c(C(F)(F)F)c2)CC1)c1ccc(F)cc1 [CAS_10457-91-7] | 360 nM | 0.5 nM
OC1(c2ccc(Cl)c(C(F)(F)F)c2)CCN(CCCC(c2ccc(F)cc2)c2ccc(F)cc2)CC1 [Penfluridol] | 1600 nM | 5.6 nM
OCCN1CCN(CCC=C2c3ccccc3Sc3ccc(Cl)cc32)CC1 [NSC_12454] | > 10000 nM | 88 nM
O=c1[nH]c2ccccc2n1C1CCN(CCCC(c2ccc(F)cc2)c2ccc(F)cc2)CC1 [1-(1-(4,4-bis(4-fluorophenyl)butyl)piperidin-4-yl)-1H-benzo[d]imidazol-2(3H)-one] | 5300 nM and 7600 nM and 6800 nM | 0.81 nM and 0.6 nM
O=C(CCCN1CCC(O)(c2ccc(Br)cc2)CC1)c1ccc(F)cc1 [BROMPERIDOL] | 600 nM | 1.4 nM
O=C(CCCN1CCC(O)(c2ccc(Cl)cc2)CC1)c1ccc(F)cc1 [4-[4-(4-Chloro-phenyl)-4-hydroxy-piperidin-1-yl]-1-(4-fluoro-phenyl)-butan-1-one;propionate(HCl)] | 920 nM and 1060 nM and 1100 nM | –
CN(C)CCCN1c2ccccc2CCc2ccccc21 | > 10000 nM | 180 nM
CC(C)[C@@]1(NC(=O)[C@@H]2C=C3c4cccc5[nH]cc(c45)C[C@H]3N(C)C2)O[C@@]2(O)[C@@H]3CCCN3C(=O)[C@H](Cc3ccccc3)N2C1=O [SMR000058447] | 52 nM | 1.4 nM
CC(C)C[C@H]1C(=O)N2CCC[C@H]2[C@]2(O)O[C@](NC(=O)[C@@H]3C=C4c5cccc6[nH]c(Br)c(c56)C[C@H]4N(C)C3)(C(C)C)C(=O)N12 [Bromocriptine+ (GTP+)] | – | 2.5 nM
CC(COc1ccccc1)N(CCCl)Cc1ccccc1 (stereo not given) | > 10000 nM | 140 nM
CCN(CC)C(=O)[C@@H]1C=C2c3cccc4[nH]c(Br)c(c34)C[C@H]2N(C)C1 [LSD,2-Bromo] | 54 nM | 4 nM
O=C1NCN(c2ccccc2)C12CCN(CCCC(c1ccc(F)cc1)c1ccc(F)cc1)CC2 | 1400 nM | 0.6 nM
Cc1ccc(N(CC2=NCCN2)c2cccc(O)c2)cc1 [SMR000059054] | > 10000 nM | 2000 nM
CCc1c(C)[nH]c2c1C(=O)C(CN1CCOCC1)CC2 (stereo not given) [Moban] | > 10000 nM | 68 nM and 65 nM and 85 nM and 90 nM
COc1ccccc1N1CCN(CCCC(=O)c2ccc(F)cc2)CC1 [Fluanisone] | 800 nM | 3.8 nM
CCC(=O)C(CC(C)N(C)C)(c1ccccc1)c1ccccc1 (stereo not given) [CAS_5967-73-7] | > 10000 nM | 2700 nM
CN1CCN(CCCN2c3ccccc3Sc3ccc(C(F)(F)F)cc32)CC1 | 740 nM | 2.1 nM
CSc1ccc2c(c1)N(CC[C@@H]1CCCCN1C)c1ccccc1S2 [10-[2-(1-Methyl-piperidin-2-yl)-ethyl]-2-methylsulfanyl-10H-phenothiazine (thioridazine)] | 1800 nM and 1780 nM and 1810 nM | –
CN1C[C@H](C(=O)N[C@]2(C)O[C@@]3(O)[C@@H]4CCCN4C(=O)[C@H](Cc4ccccc4)N3C2=O)C=C2c3cccc4[nH]cc(c34)C[C@H]21 [12'-hydroxy-2'-methyl-5'alpha-(phenylmethyl)ergotaman-3',6',18-trione] | 30 nM | 1.8 nM
CN(C)CCCN1c2ccccc2Sc2ccccc21 | 7100 nM | 72 nM
CN1CCN2c3ccccc3Cc3ccccc3[C@H]2C1 [MIANSERIN (+)] | 2500 nM | 620 nM

Structure (SMILES) | Ki (D(1A) dopamine receptor) | Ki (D(2) dopamine receptor)
CC[C@@H](CO)NC(=O)[C@@H]1C=C2c3cccc4c3c(cn4C)C[C@H]2N(C)C1 | 290 nM | 160 nM
CC(C)=CCN1CC[C@@]2(C)c3cc(O)ccc3C[C@@H]1[C@@H]2C [Talwin] | > 10000 nM | 3500 nM
CN(C)CC/C=C1\c2ccccc2Sc2ccc(Cl)cc21 | 250 nM | 4.4 nM
NC(=O)C1(N2CCCCC2)CCN(CCCC(=O)c2ccc(F)cc2)CC1 [CAS_1893-33-0] | 4900 nM | 31 nM
O=C(CCC(F)N1CCC(O)(c2cccc(C(F)(F)F)c2)CC1)c1ccccc1 (stereo not given) [CAS_749-13-3] | 740 nM | 0.95 nM
CNCCc1ccc(O)c(O)c1 [CAS_62-32-8] | 23 nM | 530 nM
NC1CCc2cc(O)c(O)cc2C1 (stereo not given) | 11 nM | 120 nM
NCCc1ccc(O)c(O)c1 | 17.5 nM and 16.8 nM and 11.7 nM | –
O=C(CCCN1CCN(c2ccccn2)CC1)c1ccc(F)cc1 [1-(4-Fluoro-phenyl)-4-(4-pyridin-2-yl-piperazin-1-yl)-butan-1-one(Azaperone)] | 1700 nM | 10 nM
OCCC1CCN(CCC=C2c3ccc(F)cc3Sc3ccc(C(F)(F)F)cc32)CC1 [CAS_60197-32-2] | 67 nM | 0.9 nM
Cc1ccc(C2(O)CCN(CCCC(=O)c3ccc(F)cc3)CC2)cc1 [NSC_4249] | 1200 nM | 1.9 nM
NCC(O)c1ccc(O)c(O)c1 (stereo not drawn) [Noradrenaline,(+)] | 820 nM and 200 nM | > 10000 nM and 5600 nM
CNCC(O)c1ccc(O)c(O)c1 (stereo not given) [EPINEPHRINE] | 280 nM and 1200 nM | 2600 nM and > 10000 nM
CN1C2CCC1CC(OC(c1ccccc1)c1ccccc1)C2 (stereo not given) | > 10000 nM | 230 nM
COc1ccc2c(c1O)-c1c3c(cc4c1[C@H](C2)N(C)CC4)OCO3 [(S)-11-methoxy-7-methyl-6,7,7a,8-tetrahydro-5H-benzo[g][1,3]dioxolo[4',5':4,5]benzo[1,2,3-de]quinolin-12-ol] | 800 nM | 930 nM
CN(C)CCCN1c2ccccc2Sc2ccc(C(F)(F)F)cc21 [TRIFLUPROMAZINE] | 530 nM | 2.1 nM
OCCN1CCN(CC/C=C2/c3ccccc3Sc3ccc(Cl)cc32)CC1 [2-[4-[(3Z)-3-(2-chloro-9-thioxanthenylidene)propyl]-1-piperazinyl]ethanol;hydrochloride] | 480 nM | 3.1 nM
CC(CN1c2ccccc2Sc2ccccc21)N(C)C (stereo not drawn) [N,N,alpha-trimethyl-10H-phenothiazine-10-ethanamine] | > 10000 nM | 240 nM
O=C(CCCN1CCC(n2c(O)nc3ccccc32)CC1)c1ccc(F)cc1 [CAS_2062-84-2] | 4100 nM | 0.33 nM
CC(C)C[C@H]1C(=O)N2CCCC2[C@]2(O)O[C@](NC(=O)[C@@H]3C=C4c5cccc6[nH]cc(c56)CC4N(C)C3)(C(C)C)C(=O)N12 (stereo partly drawn) [ALPHA-ERGOCRYPTINE] | 69 nM | 1.3 nM
O=C(CCCN1CC=C(n2c(=O)[nH]c3ccccc32)CC1)c1ccc(F)cc1 [1-(1-(4-(4-fluorophenyl)-4-oxobutyl)-1,2,3,6-tetrahydropyridin-4-yl)-1H-benzo[d]imidazol-2(3H)-one] | 880 nM | 1 nM
CC(C)[C@H]1C(=O)N2CCC[C@H]2[C@]2(O)O[C@](NC(=O)[C@@H]3C=C4c5cccc6[nH]cc(c56)C[C@H]4N(C)C3)(C(C)C)C(=O)N12 [ERGOCORNINE] | 36 nM | 0.7 nM
OCCN1CCN(CCCN2c3ccccc3Sc3ccc(C(F)(F)F)cc32)CC1 [2-[4-[3-[2-(trifluoromethyl)phenothiazin-10-yl]propyl]piperazin-1-yl]ethanol;hydrochloride] | – | 0.88 nM and 0.6 nM and 0.3 nM and 0.8 nM
CN1CCC(=C2c3ccccc3C=Cc3ccccc32)CC1 [5-(1-methylpiperidylidene-4)-5H-dibenzo(a,d)cyclopheptene] | 1200 nM | 65 nM
